Some test systems named below: RXF 393 renal; HCT-116 colon; KM12 colon; HCT-15 colon; MCF7 breast; OVCAR-4 ovarian; K-562 leukemia; LOX IMVI melanoma; IGROV1 ovarian; HCC-2998 colon.
Experiment in all cases: NCI-60 cell line screen, 48 h

“And” between values parts separate entries of the source, which are not always exact repeats. Equal entries are not always repeated.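 Protocol summary: plate cells (96-well), add compound at 5 concentrations, incubate 48 h, interpolate endpoints linearly. GI50 marks 50% less growth. TGI: total growth inhibition.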

Take `O=c1ccn(C2CC(O)C(CO)O2)c(=O)[nH]1` (centres undefined): the GI50 is above 5000 µM in the experiment on RXF 393 renal; above 5000 µM in the experiment with HCT-116 colon; above 5000 µM in the experiment with KM12 colon; above 5000 µM in the experiment with HCT-15 colon; 3000 µM in the experiment with MCF7 breast; above 5000 µM in the experiment on OVCAR-4 ovarian. Also, the GI50 in the experiment with K-562 leukemia, in the experiment with LOX IMVI melanoma, with IGROV1 ovarian and in the experiment with HCC-2998 colon was above 5000 µM in each case. Also, the TGI in the experiment on RXF 393 renal, in the experiment on HCT-116 colon, in the experiment on KM12 colon, in the experiment with HCT-15 colon, in the experiment on MCF7 breast and in the experiment on OVCAR-4 ovarian was above 5000 µM in each case. In addition, the TGI with K-562 leukemia, in the experiment with LOX IMVI melanoma, in the experiment with IGROV1 ovarian and in the experiment with HCC-2998 colon was above 5000 µM in each case.

In the case of `O=[N+]([O-])c1ccc2c(c1)Cc1cc(N=Cc3ccc4c(c3)OCO4)ccc1-2`, the TGI in the experiment with RXF 393 renal, with HCT-116 colon, in the experiment on KM12 colon, in the experiment on HCT-15 colon, in the experiment with MCF7 breast and in the experiment with OVCAR-4 ovarian was above 100 µM in each case. Moreover, the TGI in the experiment with K-562 leukemia, in the experiment with LOX IMVI melanoma and in the experiment with IGROV1 ovarian was above 100 µM in each case.

In the case of `COc1cccc(-n2nc(C)c3c(N/N=C(\C)c4ccncc4)ncnc32)c1`, the GI50 in the experiment with RXF 393 renal is 8.15 µM; with HCT-116 colon it was above 24.2 µM; with KM12 colon, above 25 µM; in the experiment on HCT-15 colon, above 25 µM; in the experiment on MCF7 breast, above 25 µM; in the experiment with OVCAR-4 ovarian, above 25 µM. Also, the GI50 with K-562 leukemia, in the experiment with LOX IMVI melanoma, in the experiment with IGROV1 ovarian and in the experiment with HCC-2998 colon was above 25 µM in each case. In addition, the TGI with RXF 393 renal, in the experiment on HCT-116 colon, in the experiment on KM12 colon, in the experiment with HCT-15 colon, in the experiment with MCF7 breast and with OVCAR-4 ovarian was above 25 µM throughout. In addition, the TGI with K-562 leukemia, in the experiment on LOX IMVI melanoma, in the experiment on IGROV1 ovarian and in the experiment with HCC-2998 colon was above 25 µM each time.

Take `COc1cccc2c1C(=O)c1c(O)c3c(c(O)c1C2=O)CC(O)(C(O)CO)CC3OC1CC(N2CCOCC2)C(O)C(C)O1` (centres undefined): the GI50 in the experiment with RXF 393 renal was below 0.001 µM; with HCT-15 colon, 0.0536 µM; in the experiment on OVCAR-4 ovarian, 0.0145 µM; in the experiment on LOX IMVI melanoma, 0.00285 µM; in the experiment on IGROV1 ovarian, 0.0288 µM. Besides, the TGI in the experiment on HCT-116 colon was 0.143 µM; in the experiment with KM12 colon, 0.114 µM; in the experiment with HCT-15 colon it was 0.515 µM and 1.36 µM; in the experiment on MCF7 breast, 0.0895 µM; in the experiment on K-562 leukemia, 1.61 µM; in the experiment on LOX IMVI melanoma, 0.15 µM and 0.0586 µM. Moreover, the TGI in the experiment with HCC-2998 colon was 0.00372 µM and 0.0304 µM.

As for `O=C(Nc1cccc(-n2cc(-c3ccncc3)c(-c3cc(O)cc(Cl)c3)n2)c1)Nc1ccc(Cl)c(C(F)(F)F)c1`, the GI50 was 1.42 µM in the experiment with RXF 393 renal; 1.96 µM in the experiment with HCT-116 colon; 2.59 µM in the experiment on KM12 colon; 2.21 µM in the experiment with HCT-15 colon; 2.63 µM in the experiment with MCF7 breast; 3.21 µM in the experiment on OVCAR-4 ovarian. Further, the GI50 in the experiment on K-562 leukemia was 2.59 µM; with LOX IMVI melanoma it was 1.97 µM; in the experiment with IGROV1 ovarian, 3.81 µM; in the experiment with HCC-2998 colon it was 3.93 µM. Besides, the TGI was 3.88 µM in the experiment on RXF 393 renal; 4.47 µM in the experiment on HCT-116 colon; 9.86 µM in the experiment with KM12 colon; 6.01 µM in the experiment on HCT-15 colon; 8.54 µM in the experiment on MCF7 breast; 9.23 µM in the experiment with OVCAR-4 ovarian. Further, the TGI amounted to 11.9 µM in the experiment with K-562 leukemia, 4.36 µM with LOX IMVI melanoma, 12.6 µM in the experiment with IGROV1 ovarian and 13.4 µM in the experiment on HCC-2998 colon.

Turning to `O=C(N/C(=C/c1ccc(Cl)cc1Cl)c1nc2ccccc2s1)c1ccccc1`, the TGI was 54.9 µM in the experiment with RXF 393 renal; above 100 µM with HCT-116 colon; 26.5 µM in the experiment with KM12 colon; 13.3 µM in the experiment with HCT-15 colon; 52.1 µM with MCF7 breast; 33.7 µM with OVCAR-4 ovarian. The TGI is above 100 µM with K-562 leukemia, 18.7 µM with LOX IMVI melanoma and 26.2 µM in the experiment on IGROV1 ovarian.

On to `NC(=O)c1ccc(I)c(N=O)c1`, for which the GI50 in the experiment with RXF 393 renal is 28.7 µM; in the experiment on HCT-116 colon, 18.6 µM; with KM12 colon it was 40.7 µM; in the experiment with HCT-15 colon it was 30 µM; in the experiment on MCF7 breast, 39.6 µM; in the experiment on OVCAR-4 ovarian, 17.7 µM. Besides, the GI50 in the experiment with LOX IMVI melanoma is 16.7 µM; in the experiment with IGROV1 ovarian, 26.7 µM; with HCC-2998 colon, 67.5 µM. Moreover, the TGI was 66 µM in the experiment with RXF 393 renal; 32.8 µM in the experiment with HCT-116 colon; above 100 µM in the experiment with KM12 colon; above 100 µM in the experiment with HCT-15 colon; above 100 µM in the experiment on MCF7 breast; 43.5 µM in the experiment with OVCAR-4 ovarian. The results for the TGI in the experiment on LOX IMVI melanoma, with IGROV1 ovarian and in the experiment on HCC-2998 colon were 31.8 µM, 86.4 µM and above 100 µM, respectively.

Regarding `COc1ccc(/C=C/C(=O)c2ccc(O)c(CN3CCN(c4cc5c(cc4F)c(=O)c(C(=O)O)cn5C4CC4)CC3)c2)cc1`, the GI50 in the experiment with RXF 393 renal was 1.42 µM; in the experiment with HCT-116 colon it was 0.368 µM; in the experiment on KM12 colon, 1.27 µM; in the experiment with HCT-15 colon, 2.22 µM; with MCF7 breast, 0.456 µM; in the experiment with OVCAR-4 ovarian, 54.9 µM. Besides, the results for the GI50 with K-562 leukemia, in the experiment with IGROV1 ovarian and in the experiment with HCC-2998 colon were 0.463 µM, 1.27 µM and 4.15 µM, respectively. Moreover, the TGI in the experiment with RXF 393 renal is 60.3 µM; with HCT-116 colon it was above 100 µM; in the experiment on KM12 colon, above 100 µM; in the experiment with HCT-15 colon it was above 100 µM; in the experiment with MCF7 breast it was above 100 µM; with OVCAR-4 ovarian, above 100 µM. Also, the TGI in the experiment with K-562 leukemia, with IGROV1 ovarian and in the experiment on HCC-2998 colon was above 100 µM in each case.

Consider `CN(C)CCNC(=O)c1cc([N+](=O)[O-])cc2c1Oc1ccccc1O2`, for which the TGI with RXF 393 renal was 93.7 µM; in the experiment on HCT-116 colon, above 100 µM; with KM12 colon it was above 100 µM; with MCF7 breast it was above 100 µM; in the experiment on OVCAR-4 ovarian, above 100 µM; in the experiment with K-562 leukemia, above 100 µM. The figures for the TGI with LOX IMVI melanoma, with IGROV1 ovarian and in the experiment on HCC-2998 colon were above 100 µM, above 100 µM and 24.1 µM, respectively.

Turning to `O=c1cc(-c2ccccc2F)[nH]c2ccc(N3CCCC3)cc12`, the GI50 in the experiment on RXF 393 renal is below 0.001 µM; in the experiment with KM12 colon, below 0.001 µM; in the experiment on HCT-15 colon it was below 0.001 µM; with MCF7 breast, 0.488 µM; in the experiment with K-562 leukemia it was below 0.001 µM; in the experiment with LOX IMVI melanoma, below 0.001 µM. For the same molecule, the GI50 was below 0.001 µM in the experiment on IGROV1 ovarian and 0.0204 µM in the experiment with HCC-2998 colon. Besides, the TGI with RXF 393 renal was above 100 µM; in the experiment on MCF7 breast it was above 100 µM; in the experiment on OVCAR-4 ovarian it was 55.3 µM; with K-562 leukemia, above 100 µM; in the experiment with LOX IMVI melanoma it was above 100 µM; in the experiment with HCC-2998 colon it was 0.455 µM and 0.0546 µM.

On to `Cc1cc(C(=C2C=CC(=Nc3ccccc3)C=C2)c2ccc(Nc3ccccc3)cc2)ccc1N`, for which the GI50 in the experiment with RXF 393 renal is 0.344 µM; in the experiment with HCT-116 colon, 0.287 µM; with KM12 colon, 0.312 µM; in the experiment on MCF7 breast, 0.346 µM; in the experiment with OVCAR-4 ovarian, 0.355 µM; in the experiment with LOX IMVI melanoma it was 0.169 µM. The GI50 in the experiment on IGROV1 ovarian was 0.389 µM; in the experiment with HCC-2998 colon, 0.211 µM. In addition, the TGI came out at 1.28 µM with RXF 393 renal; 1.02 µM in the experiment on HCT-116 colon; 1.05 µM in the experiment with KM12 colon; 1.37 µM in the experiment on MCF7 breast; 1.31 µM with OVCAR-4 ovarian; 0.31 µM with LOX IMVI melanoma. Moreover, the TGI in the experiment with IGROV1 ovarian came to 1.34 µM; in the experiment with HCC-2998 colon, 0.452 µM.

As to `Cc1cc(O)c(C2=NN(c3ccc(S(N)(=O)=O)cc3)C(c3ccccc3Cl)C2)cc1Cl` (centres undefined), the GI50 was 3.09 µM in the experiment with RXF 393 renal; 1.76 µM in the experiment on HCT-116 colon; 3.69 µM in the experiment with HCT-15 colon; 1.75 µM in the experiment on MCF7 breast; 2.73 µM with OVCAR-4 ovarian; 3.26 µM in the experiment with K-562 leukemia. Further, the GI50 in the experiment on LOX IMVI melanoma was 1.78 µM; in the experiment on IGROV1 ovarian, 2.58 µM; in the experiment with HCC-2998 colon it was 2.1 µM. In addition, the TGI was 8.22 µM in the experiment with RXF 393 renal; 3.15 µM in the experiment with HCT-116 colon; 16.6 µM in the experiment on HCT-15 colon; 3.33 µM in the experiment with MCF7 breast; 8.48 µM in the experiment on OVCAR-4 ovarian; above 100 µM in the experiment with K-562 leukemia. For the same molecule, the TGI with LOX IMVI melanoma is 3.21 µM; in the experiment on IGROV1 ovarian, 14 µM; in the experiment on HCC-2998 colon, 3.91 µM.

`COc1ccc2c(c1)nnn1c3ncccc3c(N=O)c21`: the GI50 in the experiment on RXF 393 renal is 0.308 µM and 1.96 µM; in the experiment on HCT-116 colon, 0.06 µM; with KM12 colon it was 1.03 µM and 3.02 µM; with HCT-15 colon, 3.13 µM and 2.31 µM; in the experiment on MCF7 breast, 0.132 µM and 0.336 µM; in the experiment with OVCAR-4 ovarian, 1.29 µM and 3.11 µM. The GI50 in the experiment with LOX IMVI melanoma was 0.799 µM and 0.552 µM; in the experiment with IGROV1 ovarian it was 0.114 µM and 1.09 µM; in the experiment with HCC-2998 colon it was 7.23 µM and 1.24 µM. In addition, the TGI with RXF 393 renal is 3.14 µM and 10.9 µM; in the experiment on HCT-116 colon, 0.91 µM; in the experiment with KM12 colon, 6.91 µM and 13.5 µM; with HCT-15 colon, 50 µM and 11.8 µM; in the experiment on MCF7 breast, 0.814 µM and 2.21 µM; in the experiment on OVCAR-4 ovarian, 16.6 µM and > 100 µM. In addition, the TGI in the experiment with LOX IMVI melanoma was 7.06 µM and 2.56 µM; in the experiment on HCC-2998 colon it was 15.6 µM and 2.79 µM.

In the case of `COC(=O)c1ccccc1OCc1cc(=O)oc2ccc(C)cc12`, the TGI is above 100 µM with HCT-116 colon; above 100 µM with KM12 colon; above 100 µM in the experiment on HCT-15 colon; above 100 µM in the experiment with MCF7 breast; above 63.4 µM in the experiment on OVCAR-4 ovarian; above 100 µM with K-562 leukemia. Moreover, the TGI in the experiment with LOX IMVI melanoma, in the experiment with IGROV1 ovarian and with HCC-2998 colon was above 100 µM each time.

These data come from PubChem BioAssay (NCI).
